Reference: patent US8952024B2, “Herbicidal pyrimidone derivatives” (E I du Pont de Nemours and Company, priority 2009, dated 2015)

Assays:
Type in all cases: in vivo
[1] = tested on: barnyardgrass (Echinochloa crus-galli); assay: Test A pre-/postemergence plant response; conditions: for Barnyardgrass plant response rating: visual injury, 0 to 100 scale (0 no effect, 100 complete control), approx. ten days
In short: (§1)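 Injury was scored visually after roughly ten days against untreated controls, 0 = no effect, 100 = complete control. Test chemicals in a surfactant-containing non-phytotoxic solvent were sprayed either onto soil preemergence or onto one- to two-leaf, 2–10 cm plants postemergence.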

corn (Zea mays) = assay: Test A pre-/postemergence plant response; conditions: for Corn plant response rating: visual injury, 0 to 100 scale (0 no effect, 100 complete control), approx. ten days
In short: as §1

[2] = tested on: giant foxtail (Setaria faberii); assay: Test A pre-/postemergence plant response; conditions: for Foxtail, Giant plant response rating: visual injury, 0 to 100 scale (0 no effect, 100 complete control), approx. ten days
In short: as §1

[3] = tested on: large crabgrass (Digitaria sanguinalis); assay: Test A pre-/postemergence plant response; conditions: for Crabgrass, Large plant response rating: visual injury, 0 to 100 scale (0 no effect, 100 complete control), approx. ten days
In short: as §1

[4] = tested on: morningglory (Ipomoea spp.); assay: Test A pre-/postemergence plant response; conditions: for Morningglory plant response rating: visual injury, 0 to 100 scale (0 no effect, 100 complete control), approx. ten days
In short: as §1

[5] = tested on: pigweed (Amaranthus retroflexus); assay: Test A pre-/postemergence plant response; conditions: for Pigweed plant response rating: visual injury, 0 to 100 scale (0 no effect, 100 complete control), approx. ten days
In short: as §1

[6] = tested on: velvetleaf (Abutilon theophrasti); assay: Test A pre-/postemergence plant response; conditions: for Velvetleaf plant response rating: visual injury, 0 to 100 scale (0 no effect, 100 complete control), approx. ten days
In short: as §1

[7] = tested on: wheat (Triticum aestivum); assay: Test A pre-/postemergence plant response; conditions: for Wheat plant response rating: visual injury, 0 to 100 scale (0 no effect, 100 complete control), approx. ten days
In short: as §1

[8] = tested on: barnyardgrass (Echinochloa crus-galli); assay: Test B flooded paddy test; conditions: for Plant response rating, Flood, Barnyardgrass: 250 g ai/ha, flooded paddy test, visual rating on 0 to 100 scale (0 no effect, 100 complete control) after 13 to 15 days; for Plant response rating, Barnyardgrass: Flood (flooded paddy test), 13 to 15 days; for Barnyardgrass plant response rating: Flood, 31 g ai/ha, scale 0 to 100 (0 no effect, 100 complete control)
In short: (§2)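 Greenhouse-held for 13 to 15 days, treated pots were compared visually with controls and scored 0–100 (0, no effect). Treatment had been made into paddy water kept at 3 cm above the soil, with plants at the 2-leaf stage.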

[9] = tested on: ducksalad (Heteranthera limosa); assay: Test B flooded paddy test; conditions: for Plant response rating, Flood, Ducksalad: 250 g ai/ha, flooded paddy test, visual rating on 0 to 100 scale (0 no effect, 100 complete control) after 13 to 15 days; for Plant response rating, Ducksalad: Flood (flooded paddy test), 13 to 15 days; for Ducksalad plant response rating: Flood, 31 g ai/ha, scale 0 to 100 (0 no effect, 100 complete control)
In short: as §2

rice (Oryza sativa) = assay: Test B flooded paddy test; conditions: for Plant response rating, Flood, Rice: 250 g ai/ha, flooded paddy test, visual rating on 0 to 100 scale (0 no effect, 100 complete control) after 13 to 15 days; for Plant response rating, Rice: Flood (flooded paddy test), 13 to 15 days; for Rice plant response rating: Flood, 31 g ai/ha, scale 0 to 100 (0 no effect, 100 complete control)
In short: as §2

[10] = tested on: umbrella sedge (Cyperus difformis); assay: Test B flooded paddy test; conditions: for Plant response rating, Flood, Sedge, Umbrella: 250 g ai/ha, flooded paddy test, visual rating on 0 to 100 scale (0 no effect, 100 complete control) after 13 to 15 days; for Plant response rating, Sedge, Umbrella: Flood (flooded paddy test), 13 to 15 days; for Sedge, Umbrella plant response rating: Flood, 31 g ai/ha, scale 0 to 100 (0 no effect, 100 complete control)
In short: as §2

[11] = Postemergence, 125 g ai/ha, 0 to 100 scale where 0 is no effect and 100 is complete control
[12] = Preemergence, 125 g ai/ha, 0 to 100 scale, 0 = no effect, 100 = complete control
[13] = Preemergence, 500 g ai/ha, 0 to 100 scale, 0 = no effect, 100 = complete control
[14] = 62 g ai/ha, scale of 0 to 100 where 0 is no effect and 100 is complete control
[15] = 125 g ai/ha, scale 0 to 100, 0 is no effect, 100 is complete control

CCn1c(Cc2ccccc2)ncc(C(=O)C2=C(O)CCCC2=O)c1=O [Compound 200]
Plant response rating, Barnyardgrass [1, 11]: 0
Barnyardgrass plant response rating ([1]; Postemergence, 500 g ai/ha): 10
Plant response rating, Barnyardgrass [1, 12]: 0
Plant response rating, Barnyardgrass [1, 13]: 0
Plant response rating, Corn (corn (Zea mays); [11]): 0
Corn plant response rating (corn (Zea mays); Postemergence, 500 g ai/ha): 0
Plant response rating, Corn (corn (Zea mays); [12]): 0
Plant response rating, Corn (corn (Zea mays); [13]): 0
Plant response rating, Foxtail, Giant [2, 11]: 0
Foxtail, Giant plant response rating ([2]; Postemergence, 500 g ai/ha): 10
Plant response rating, Foxtail, Giant [2, 12]: 0
Plant response rating, Foxtail, Giant [2, 13]: 0
Plant response rating, Crabgrass, Large [3, 11]: 10
Crabgrass, Large plant response rating ([3]; Postemergence, 500 g ai/ha): 10
Plant response rating, Crabgrass, Large [3, 12]: 0
Plant response rating, Crabgrass, Large [3, 13]: 0
Plant response rating, Morningglory [4, 11]: 50
Morningglory plant response rating ([4]; Postemergence, 500 g ai/ha): 60
Plant response rating, Morningglory [4, 12]: 0
Plant response rating, Pigweed [5, 11]: 60
Pigweed plant response rating ([5]; Postemergence, 500 g ai/ha): 80
Plant response rating, Pigweed [5, 12]: 0
Plant response rating, Pigweed [5, 13]: 20
Plant response rating, Velvetleaf [6, 11]: 100
Velvetleaf plant response rating ([6]; Postemergence, 500 g ai/ha): 100
Plant response rating, Velvetleaf [6, 12]: 0
Plant response rating, Velvetleaf [6, 13]: 60
Plant response rating, Wheat [7, 11]: 0
Wheat plant response rating ([7]; Postemergence, 500 g ai/ha): 0
Plant response rating, Wheat [7, 12]: 0
Plant response rating, Wheat [7, 13]: 0
Plant response rating, Flood, Barnyardgrass [8]: 38
Plant response rating, Barnyardgrass [8, 14]: 0
Plant response rating, Barnyardgrass [8, 15]: 23
Barnyardgrass plant response rating [8]: 0
Plant response rating, Flood, Ducksalad [9]: 85
Plant response rating, Ducksalad [9, 14]: 83
Plant response rating, Ducksalad [9, 15]: 85
Ducksalad plant response rating [9]: 38
Plant response rating, Flood, Rice (rice (Oryza sativa)): 23
Plant response rating, Rice (rice (Oryza sativa); [14]): 0
Plant response rating, Rice (rice (Oryza sativa); [15]): 10
Rice plant response rating (rice (Oryza sativa)): 0
Plant response rating, Flood, Sedge, Umbrella [10]: 70
Plant response rating, Sedge, Umbrella [10, 14]: 33
Plant response rating, Sedge, Umbrella [10, 15]: 43
Sedge, Umbrella plant response rating [10]: 30

COc1ccc(-n2c(-c3cccc(F)c3)ncc(C(=O)C3=C(O)CCCC3=O)c2=O)cc1 [Compound 203]
Plant response rating, Barnyardgrass [1, 11]: 80
Barnyardgrass plant response rating ([1]; Postemergence, 500 g ai/ha): 100
Plant response rating, Barnyardgrass [1, 12]: 30
Plant response rating, Barnyardgrass [1, 13]: 70
Plant response rating, Corn (corn (Zea mays); [11]): 0
Corn plant response rating (corn (Zea mays); Postemergence, 500 g ai/ha): 30
Plant response rating, Corn (corn (Zea mays); [12]): 0
Plant response rating, Corn (corn (Zea mays); [13]): 20
Plant response rating, Foxtail, Giant [2, 11]: 30
Foxtail, Giant plant response rating ([2]; Postemergence, 500 g ai/ha): 80
Plant response rating, Foxtail, Giant [2, 12]: 30
Plant response rating, Foxtail, Giant [2, 13]: 90
Plant response rating, Crabgrass, Large [3, 11]: 30
Crabgrass, Large plant response rating ([3]; Postemergence, 500 g ai/ha): 70
Plant response rating, Crabgrass, Large [3, 12]: 20
Plant response rating, Crabgrass, Large [3, 13]: 70
Plant response rating, Morningglory [4, 11]: 100
Morningglory plant response rating ([4]; Postemergence, 500 g ai/ha): 100
Plant response rating, Morningglory [4, 12]: 0
Plant response rating, Morningglory [4, 13]: 70
Plant response rating, Pigweed [5, 11]: 100
Pigweed plant response rating ([5]; Postemergence, 500 g ai/ha): 100
Plant response rating, Pigweed [5, 12]: 100
Plant response rating, Pigweed [5, 13]: 100
Plant response rating, Velvetleaf [6, 11]: 90
Velvetleaf plant response rating ([6]; Postemergence, 500 g ai/ha): 100
Plant response rating, Velvetleaf [6, 12]: 50
Plant response rating, Velvetleaf [6, 13]: 80
Plant response rating, Wheat [7, 11]: 0
Wheat plant response rating ([7]; Postemergence, 500 g ai/ha): 30
Plant response rating, Wheat [7, 12]: 0
Plant response rating, Wheat [7, 13]: 30
Plant response rating, Flood, Barnyardgrass [8]: 20
Plant response rating, Barnyardgrass [8, 14]: 0
Plant response rating, Barnyardgrass [8, 15]: 0
Barnyardgrass plant response rating [8]: 0
Plant response rating, Flood, Ducksalad [9]: 95
Plant response rating, Ducksalad [9, 14]: 75
Plant response rating, Ducksalad [9, 15]: 95
Ducksalad plant response rating [9]: 40
Plant response rating, Flood, Rice (rice (Oryza sativa)): 0
Plant response rating, Rice (rice (Oryza sativa); [14]): 0
Plant response rating, Rice (rice (Oryza sativa); [15]): 0
Rice plant response rating (rice (Oryza sativa)): 0
Plant response rating, Flood, Sedge, Umbrella [10]: 85
Plant response rating, Sedge, Umbrella [10, 14]: 65
Plant response rating, Sedge, Umbrella [10, 15]: 75
Sedge, Umbrella plant response rating [10]: 0
